These results are taken from patent publication US11819489B2 (priority 2017, dated 2023).

For data set [1], the system named is Kasumi-1 cells.
Data set [2] deals with HL-60 cells.
Data set [3] deals with Chinese hamster (CH) solid tumour cells.
For data set [4], the system named is Kasumi-1 cells. Put plainly: Cellular As uptake, Kasumi-1 cells. It counts as cell-based, human. Conditions: 24-h treatment, 1.5 μM As. The procedure:
(§1) FIG. 24 is a graphical summary of the cellular As concentrations associated with the specified cell lines following 24-h treatment (1.5 μM As). The results are represented as the mean and standard deviation of triplicate samples.
(§2) FIG. 24 summarises the cellular As concentrations associated with the different cell types following 24-h treatment with the various As compounds (1.5 μM As). The leukemia cell lines, K562, HL-60, Kasumi-1 and KARPAS 45, are depicted in red (lighter of the filled in blocks), and the non-leukemia cell types are depicted in black (darkest shading), with the cancerous adherent cells, HepG2, in the diagonal stripes, and the normal cells, hPBMC, in solid black.

Data set [5] relates to K562 cells.
Data set [6] concerns human peripheral blood mononuclear cells (hPBMC).
For data set [7], the system named is HepG2 cells.
For a further data set, the system named is hPBMC. As to the kind of experiment: Cellular As uptake, hPBMC. Conditions: 24-h treatment, 1.5 μM As. Format: cell-based, human. The procedure:
as §1, §2

Data set [8] in a line: Stability of As-LHP complexes in cell medium (IMDM) by XAS. Format: physicochemical. Conditions: 37° C., 0 h vs 24 h; for stability in IMDM: XANES. The procedure: The stability of the two most promising As-LHP complexes was also studied in cell medium (IMDM). Samples were prepared by dissolving MeAs(LHP) or PhAs(LHP) (1.5 mM) in IMDM which was maintained at 37° C. The same protocol was followed as that for the Milli-Q water stability studies. XAS spectra were obtained at the zero time point and then at 24 h. As with the Milli-Q water samples, the spectra from the two time points were processed, fitted and quantified using EXAFSPAK.

The test system of data set [9] is HL-60 cells. Put plainly: Fate of PhAs(LHP) in HL-60 cells (micrographs, microprobe SR-XRF, XANES). The note with it: HL-60, 10 μM. Format: cell-based, human. The procedure: (§3) The cell lines, K562 and HL-60, were obtained and maintained as previously described. Glutaraldehyde (25% solution), Spurr's low viscosity embedding resin, 3-mm gold Finder grids, and toluidine blue were sourced from Proscitech (Kirwan, Australia). Thin-sectioned cells were prepared for microprobe SRXRF analysis using procedures documented previously. Briefly the cells were treated in cell culture flasks (75 cm^2) with either IMDM (for the control cells, 4 h or 24 h) or PhAs(LHP) (10 μM in IMDM, 4 h or 24 h). The cells were washed with PBS (2 times) using centriguation and the final cell pellet was fixed in gluteraldehyde (1 mL, 2% v/v in PBS) for 2 h at room temperature; and dehydrated in ethanol (30%×2, 50%×2, 70%×2, 80%×2, 90%×2, 95%×2, 100%×4). Infiltration was achieved by rocking the cells in 50% ethanol/50% Spurr's resin overnight and then replacing with 100% Spurr's resin (×2 over 2 days) to ensure the removal of all traces of water. On the final day, the cells were embedded in 100% Spurr's resin, centrifuged (8000 g, 1 h) and cured at 60° C. overnight in a Beem capsule. Thin sections (1 μm) of the cell pellet were cut using an ultramicrotome (Leica EM UC7). The thin-sections were stained with toluidine blue before mounting on silicon nitride membranes.
The gold Finder grids were attached to kinematic mounts designed to fit both the light microscope (Leica DMXRE Epi-fluorescence/visual microscope) and the X-ray microprobe (2-ID-D). Optical micrographs and XY coordinates were obtained in order to locate suitable cells for analysis.
Microprobe SR-XRF was performed at beamline 2-ID-D at the Advanced Photon Source, Argonne National Laboratory (Lemont, Ill., USA). The 11.9-keV X-ray beam was focused to a spot size of 0.3×0.3 μm^2 using two zone plates. The samples were housed in a helium atmosphere and the distributions of the elements from P (2.1 keV) to As (11.9 keV) were mapped by raster scanning the sample in 0.3 μm steps, with the aid of a XYZ motorised stage. Fluorescent X-rays were detected using a dwell time of 2.5 s/pt and an energy dispersive Vortex EM (Hitachi High-Technologies Science America, Northridge, Calif.) silicon drift detector. Elemental distribution maps were processed using MAPS Version 1.7.3.02 software package (S. Vogt, Advanced Photon Source). Conversion of elemental fluorescence intensities to absolute densities in microgram per square centimetre (μg/cm^2) was performed by comparing X-ray fluorescence intensities with those from thin film standards, NBS-1832 and NBS-1833 (NIST, Gaithersburg, Md., USA).

A short description of data set [10]: Stability of As-LHP complexes in Milli-Q water by XAS. Format: physicochemical. Conditions: 37° C.; for stability in Milli-Q water: XANES. As for the experimental part: The stability of As-LHP complexes was studied by XAS. Samples were prepared by dissolving HyAs(LHP), MeAs(LHP) or PhAs(LHP) (1.5 mM) in Milli-Q water which was maintained at 37° C. Immediately prior to analysis the arsenic-peptide solution (600 μL) was mixed with ethylene glycol (300 μL) to prevent crystallisation during rapid freezing. The resultant solution (1 mM final As concentration) was transferred by syringe to the sample holder which was sealed with Kapton tape. The sample was then rapidly submerged in liquid nitrogen and transferred to the liquid helium cryostat where it was analysed at 10° K.
Arsenic K-edge XAS data were collected at the Australian National Beamline Facility (ANBF, beamline 20B) KEK, Tsukuba, Japan with a beam energy of 2.5 GeV, and beam current of 300-400 mA. A Si[111] channel-cut monochromator was detuned by 50% to reject harmonics. All spectra were recorded in fluorescence mode at ˜10° K (maintained with a closed-cycle He Cryolndustries REF-1577-D22 cryostat) using a 36-element Ge-array detector (Eurisys/Canberra Industries) and a 1-mm vertical slit width. XAS spectra were obtained at the zero time point and then at a later time point, 4 h or 14 h. The spectra from the two time points were processed and analysed using EXAFS PAK.

For data set [11], the system named is HepG2 cells. It counts as cell-based, human.
In the next data set the test system is A549 cells. Conditions: 24-h treatment.
In data set [12] the test system is K562 cells. As to the kind of experiment: Fate of PhAs(LHP) in K562 cells (micrographs, microprobe SR-XRF, XANES). It counts as cell-based, human. Conditions: K562, 10 μM. The procedure:
as §3
The gold Finder grids were attached to kinematic mounts designed to fit both the light microscope (Leica DMXRE Epi-fluorescence/visual microscope) and the X-ray microprobe (2-ID-D). […]
Microprobe SR-XRF was performed at beamline 2-ID-D at the Advanced Photon Source, Argonne National Laboratory (Lemont, Ill., USA). […] Fluorescent X-rays were detected using a dwell time of 2.5 s/pt and an energy dispersive Vortex EM (Hitachi High-Technologies Science America, Northridge, Calif.) silicon drift detector. […] Conversion of elemental fluorescence intensities to absolute densities in microgram per square centimetre (μg/cm^2) was performed by comparing X-ray fluorescence intensities with those from thin film standards, NBS-1832 and NBS-1833 (NIST, Gaithersburg, Md., USA).

Values joined by “and” are separate entries in the source; they are usually repeats but may differ in a detail not shown here. Equal values may be shown once. “Also recorded” adds a separate entry of the source.

The IC50 is the concentration that inhibits the measured activity by half. Turning to arsenic trioxide [ATO], the IC50 with Kasumi-1 cells [1] was 61 ± 1 µM; in the data set on HL-60 cells [2], 7 ± 0.1 µM; in data set [3], 23.3 ± 0.9 µM; in the data set on K562 cells [5] it was 9.7 ± 0.2 µM; in the data set on KARPAS 45 cells it was 15.1 µM and 15 µM; in [6], 81.7 µM and 82 µM. The molecule further yielded a half-maximal inhibitory concentration (IC50) with HepG2 cells [7] of 52 ± 3 µM. Moreover, the figures for the “relative toxicity / IC50 versus another compound, in words (comparator in the value)” value (in the data set on HL-60 cells [2]; in the data set on K562 cells [5]; in data set [6]) were “a little less than half that obtained for arsenite”, “approximately half that of arsenite” and “approximately twice that obtained for arsenite”, respectively. Besides, the “cellular As concentration in Kasumi-1 cells, times greater than in HepG2 cells” value in the data set on Kasumi-1 cells [4] amounted to 5.5 times. Besides, in the data set on KARPAS 45 cells, the “IC50 as percentage of the value for arsenite” value turned out to be 23%. Further, the “times more toxic than arsenite” value with HepG2 cells [7] was 1.7 times.

Take `CC(=O)N[C@H]1CS[As](c2ccccc2)SC[C@@H](C(=O)O)NC(=O)[C@H](CCCNC(=N)N)NC(=O)[C@H](CCCNC(=N)N)NC(=O)[C@H](CC(C)C)NC(=O)[C@H](CCCNC(=N)N)NC(=O)[C@H](Cc2c[nH]cn2)NC(=O)[C@H](Cc2ccc(O)cc2)NC(=O)[C@H](C)NC1=O` (stereo partly shown) [PhAs(LHP)]: the “cellular As concentration” value in the data set with hPBMC is reported as “no detectable cellular As concentrations”. In the data set with Kasumi-1 cells [1], the midpoint of inhibition, the IC50, lay at 1.4 ± 0.1 µM; the “relative toxicity / IC50 versus another compound, in words (comparator in the value)” value was “approximately forty times more toxic than ATO”; the “times more toxic than PAO” value came out at 3.6 times; the “times more toxic than PhAs(sLHP)” value is on record as “about 460 times”. In data set [8], the “agreement between As K-edge XANES spectra at the two time points” value is 97% and the “stability in IMDM” value is “reasonably stable in IMDM for 24 h; also recorded: good stability”. In the data set with HL-60 cells [2], the IC50 was 0.5 ± 0.1 µM and the “relative toxicity / IC50 versus another compound, in words (comparator in the value)” value is “three times greater toxicity toward HL-60 cells than the PAO starting material”. Further, in data set [3], the IC50 was found to be 770 ± 12 µM; the “selectivity: IC50 in CH solid tumour cells, times greater than in K562 and HL-60 cells” value was “approximately 1500 times”. Further, in the data set with HL-60 cells [9] (4 h), the “cell morphology (toluidine-blue micrograph)” value (from here on “cell morphology”) is on record as “cell distress is evident” and the “intracellular As distribution (microprobe SR-XRF)” value (shortened to “intracellular As distribution”) was “only small localisations of As”. In the data set with HL-60 cells [9] (24 h), the “cell morphology” value is recorded as “high degree of cell degredation with evidence of cell demise” and the “intracellular As distribution” value was “the nucleus clearly contains a greater accumulation of As than the rest of the cell”. Further, in the data set on Kasumi-1 cells [4], the “cellular As concentration in Kasumi-1 cells, times greater than in HL-60 cells” value is given as 1.4 times; the “cellular As concentration in Kasumi-1 cells, times higher than in K562 cells” value amounted to 1.2 times; the “cellular As concentration in Kasumi-1 cells, times higher than in KARPAS 45 cells” value worked out at 4.0 times. Further, in [10] (0 h vs 14 h), the “agreement between As K-edge XANES spectra at the two time points” value is reported as ~100% and the “stability in Milli-Q water” value is “stable in Milli-Q water for 14 h; also recorded: excellent stability”. Further, the “cellular As concentration” value in the data set on HepG2 cells [11] is “no detectable cellular As concentrations”. The “selectivity: IC50 in A549 cells, times greater than in K562 and HL-60 cells” value in the data set with A549 cells is reported as 470 times. In the data set with A549 cells (A549 cells, MTT), this molecule came in with an IC50 of 234 ± 5 µM. Further, in [6], it took 495 ± 6 µM to reach half-maximal inhibition (IC50); the “selectivity: IC50 in hPBMC, times greater than in K562 and HL-60 cells” value is reported as “approximately 1000 times”; the “selectivity: IC50 in hPBMC, times greater than in KARPAS 45 cells” value was “approximately 64 times”. Further, in the data set on HepG2 cells [7], the IC50 turned out to be 978 ± 11 µM; the “selectivity: IC50 in HepG2 cells, times greater than in K562 and HL-60 cells” value is reported as ~2000 times. For the same molecule, the “cell morphology” value in the data set with K562 cells [12] (4 h) is listed as “clear evidence of cell stress with fragmentation of the nucleus”. In addition, in the data set with K562 cells [12] (4 h and 24 h), the “intracellular As distribution” value is recorded as “significant As throughout the cell with evidence of accumulation in the cell nucleus”. Also, the “cell morphology” value in the data set with K562 cells [12] (24 h) was “breakdown of the cell membrane and fragmented/dispersed nuclear material”.

Consider `CC(=O)N[C@H]1CS[As](O)SC[C@@H](C(=O)O)NC(=O)[C@H](CCCNC(=N)N)NC(=O)[C@H](CCCNC(=N)N)NC(=O)[C@H](CC(C)C)NC(=O)[C@H](CCCNC(=N)N)NC(=O)[C@H](Cc2c[nH]cn2)NC(=O)[C@H](Cc2ccc(O)cc2)NC(=O)[C@H](C)NC1=O` (stereo partly shown) [HyAs(LHP)], for which the “stability in Milli-Q water” value in [10] (0 h vs 4 h) was “not stable in Milli-Q water for 4 h; also recorded: lack of stability”. Besides, in the data set with K562 cells [5], the “IC50 as percentage of that of ATO” value worked out at 60%.

With `CC(=O)N[C@H]1CS[As](C)SC[C@@H](C(=O)O)NC(=O)[C@H](CCCNC(=N)N)NC(=O)[C@H](CCCNC(=N)N)NC(=O)[C@H](CC(C)C)NC(=O)[C@H](CCCNC(=N)N)NC(=O)[C@H](Cc2c[nH]cn2)NC(=O)[C@H](Cc2ccc(O)cc2)NC(=O)[C@H](C)NC1=O` (stereo partly shown) [MeAs(LHP)], in [8], the “agreement between As K-edge XANES spectra at the two time points” value is 82% and the “stability in IMDM” value is “reasonable stability”. In data set [10] (0 h vs 14 h), the “agreement between As K-edge XANES spectra at the two time points” value was 93% and the “stability in Milli-Q water” value is reported as “good stability”. For the same molecule, in the data set with K562 cells [5], the “IC50 as percentage of that of ATO” value is listed as 37% and the “IC50 as percentage of that of HyAs(LHP)” value is on record as 60%.
